Where “and” joins values, the source holds several entries; their conditions need not be identical. Equal entries are not always repeated. Inconclusive results and toxic doses are left out. Rule for the calls: active = survival T/C of 150% or more; inactive = T/C below 125% in these data.
Test system: P388 leukemia ip, CD2F1 mice, survival T/C
Test: NCI In Vivo Anticancer Drug Screen. Data for tumor model P388 Leukemia (intraperitoneal) in CD2F1 (CDF1) mice
Details: endpoint: median survival time, higher = longer survival
Summary of the method: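 Mice carrying the transplanted tumor received test compound or vehicle. Survival was recorded in each group, and the value is the treated-group measurement divided by that of the vehicle-treated control group.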

[1] = dose: 12.5 mg/kg/injection, schedule: Q01DX009 (ip), vehicle: saline with Tween-80
[2] = dose: 25.0 mg/kg/injection, schedule: Q01DX009 (ip), vehicle: saline with Tween-80
[3] = dose: 50.0 mg/kg/injection, schedule: Q01DX009 (ip), vehicle: saline with Tween-80
[4] = dose: 200.0 mg/kg/injection, schedule: Q01DX009 (ip), vehicle: saline with Tween-80
[5] = dose: 100.0 mg/kg/injection, schedule: Q01DX009 (ip), vehicle: saline with Tween-80
[6] = dose: 60.0 mg/kg/injection, schedule: Q01DX005 (ip), vehicle: saline with Tween-80
[7] = dose: 120.0 mg/kg/injection, schedule: Q01DX005 (ip), vehicle: saline with Tween-80
[8] = dose: 240.0 mg/kg/injection, schedule: Q01DX005 (ip), vehicle: saline with Tween-80
[9] = dose: 50.0 mg/kg/injection, schedule: Q01DX005 (ip), vehicle: Klucel (hydroxypropylcellulose) (HPC)
[10] = dose: 100.0 mg/kg/injection, schedule: Q01DX005 (ip), vehicle: Klucel (hydroxypropylcellulose) (HPC)
[11] = dose: 200.0 mg/kg/injection, schedule: Q01DX005 (ip), vehicle: Klucel (hydroxypropylcellulose) (HPC)
[12] = dose: 50.0 mg/kg/injection, schedule: Q01DX009 (ip), vehicle: saline
[13] = dose: 100.0 mg/kg/injection, schedule: Q01DX009 (ip), vehicle: saline
[14] = dose: 200.0 mg/kg/injection, schedule: Q01DX009 (ip), vehicle: saline

Measured: T/C

Cc1ccc2c(c1O)NC(O)c1cccn1C2=O (centres undefined)
inactive: dose: 0.1 mg/kg/injection, schedule: Q01DX005 (ip), vehicle: water 99 % of control | dose: 0.2 mg/kg/injection, schedule: Q01DX005 (ip), vehicle: water 111 % of control | dose: 0.4 mg/kg/injection, schedule: Q01DX005 (ip), vehicle: water 100 % of control | dose: 0.8 mg/kg/injection, schedule: Q01DX005 (ip), vehicle: water 98 % of control | dose: 1.6 mg/kg/injection, schedule: Q01DX005 (ip), vehicle: water 96 % of control | dose: 5.0 mg/kg/injection, schedule: Q01DX005 (ip), vehicle: distilled water + Tween-80 92 % of control | dose: 10.0 mg/kg/injection, schedule: Q01DX005 (ip), vehicle: distilled water + Tween-80 98 % of control | dose: 20.0 mg/kg/injection, schedule: Q01DX005 (ip), vehicle: distilled water + Tween-80 91 % of control | dose: 80.0 mg/kg/injection, schedule: Q01DX005 (ip), vehicle: distilled water + Tween-80 86 % of control

CCCC(C)(O)/C(C)=N/O (centres undefined)
inactive: [1] 98 % of control | [2] 101 % of control | [3] 104 % of control and 87 % of control | [4] 90 % of control

N#CC(C#N)=Cc1ccc2c(c1)CCC2
inactive: [2] 90 % of control | [3] 95 % of control | [5] 109 % of control

[Cu+2].[Cu+2].c1ccc2c(c1)-c1nc-2nc2[n-]c(nc3nc(nc4[n-]c(n1)c1ccccc41)-c1ccccc1-3)c1cc3c4nc5nc(nc6[n-]c(nc7nc(nc([n-]4)c3cc21)-c1ccccc1-7)c1ccccc61)-c1ccccc1-5
inactive: [6] 100 % of control | [7] 89 % of control | [8] 95 % of control

COc1ccc(N2C(=O)c3ccc4c5ccc6c7c(ccc(c8ccc(c3c48)C2=O)c75)C(=O)N(C)C6=O)cc1
inactive: [9] 97 % of control | [10] 98 % of control | [11] 105 % of control

O=[N+]([O-])CCCN=NN1CCCCC1
inactive: dose: 12.5 mg/kg/injection, schedule: Q04DX002 (ip), vehicle: saline 104 % of control | dose: 25.0 mg/kg/injection, schedule: Q04DX002 (ip), vehicle: saline 107 % of control | dose: 50.0 mg/kg/injection, schedule: Q04DX002 (ip), vehicle: saline 103 % of control

Cn1c(=O)c(CCCC(=O)O)nc2ccccc21
inactive: dose: 100.0 mg/kg/injection, schedule: Q04DX002 (ip), vehicle: saline with Tween-80 97 % of control | dose: 200.0 mg/kg/injection, schedule: Q04DX002 (ip), vehicle: saline with Tween-80 102 % of control | dose: 400.0 mg/kg/injection, schedule: Q04DX002 (ip), vehicle: saline with Tween-80 107 % of control

COc1ccc2nc(N/N=C/c3ccccn3)cc(C)c2c1
inactive: dose: 25.0 mg/kg/injection, schedule: Q01DX005 (ip), vehicle: saline with Tween-80 103 % of control | dose: 50.0 mg/kg/injection, schedule: Q01DX005 (ip), vehicle: saline with Tween-80 110 % of control and 112 % of control | dose: 100.0 mg/kg/injection, schedule: Q01DX005 (ip), vehicle: saline with Tween-80 103 % of control

CC(/C=N/Nc1ccccc1)=N\N=c1/scc(-c2ccccc2)n1Cc1ccccc1
inactive: dose: 100.0 mg/kg/injection, schedule: Q01DX001 (ip), vehicle: saline with Tween-80 93 % of control | dose: 200.0 mg/kg/injection, schedule: Q01DX001 (ip), vehicle: saline with Tween-80 97 % of control | dose: 400.0 mg/kg/injection, schedule: Q01DX001 (ip), vehicle: saline with Tween-80 93 % of control

O=C(CN1CCCCC1)Nc1ccc(Br)cc1
inactive: [3] 106 % of control | [12] 103 % of control and 113 % of control | [5] 100 % of control | [13] 105 % of control | [4] 111 % of control | [14] 120 % of control | dose: 400.0 mg/kg/injection, schedule: Q01DX009 (ip), vehicle: saline with Tween-80 102 % of control

CCN1C(=O)NC(=O)C(C)(N2CCCCC2)C1=O (centres undefined)
inactive: [9] 108 % of control | [10] 103 % of control | [11] 100 % of control

NC(=O)CC[n+]1cccc(C(=O)O)c1
inactive: dose: 100.0 mg/kg/injection, schedule: Q04DX003 (ip), vehicle: saline 100 % of control | dose: 200.0 mg/kg/injection, schedule: Q04DX003 (ip), vehicle: saline 95 % of control | dose: 400.0 mg/kg/injection, schedule: Q04DX003 (ip), vehicle: saline 95 % of control

CC12CC(C(O)(C(F)(F)F)C(F)(F)F)C(=O)C=C1CCC1C2CCC2(C)C(C(=O)CC(O)(C(F)(F)F)C(F)(F)F)CCC12 (centres undefined)
inactive: dose: 75.0 mg/kg/injection, schedule: Q01DX001 (sc), vehicle: steriod suspending solution 104 % of control | dose: 150.0 mg/kg/injection, schedule: Q01DX001 (sc), vehicle: steriod suspending solution 122 % of control | dose: 300.0 mg/kg/injection, schedule: Q01DX001 (sc), vehicle: steriod suspending solution 100 % of control

COc1ccc2c(C)cc(=O)sc2c1
inactive: dose: 50.0 mg/kg/injection, schedule: Q01DX009 (ip), vehicle: saline + Tween-80 + alcohol 101 % of control | dose: 100.0 mg/kg/injection, schedule: Q01DX009 (ip), vehicle: saline + Tween-80 + alcohol 104 % of control | dose: 200.0 mg/kg/injection, schedule: Q01DX009 (ip), vehicle: saline + Tween-80 + alcohol 100 % of control

c1ccc(CN2Cc3c(n(-c4ccccc4)c4ccccc34)C2)cc1
inactive: dose: 100.0 mg/kg/injection, schedule: Q04DX003 (ip), vehicle: Klucel (hydroxypropylcellulose) (HPC) 105 % of control | dose: 200.0 mg/kg/injection, schedule: Q04DX003 (ip), vehicle: Klucel (hydroxypropylcellulose) (HPC) 112 % of control | dose: 400.0 mg/kg/injection, schedule: Q04DX003 (ip), vehicle: Klucel (hydroxypropylcellulose) (HPC) 114 % of control

COc1ccc(-n2c(C)nc3c(cnn3CN3CCCCC3)c2=O)cc1
inactive: dose: 60.0 mg/kg/injection, schedule: Q01DX005 (ip), vehicle: Klucel (hydroxypropylcellulose) (HPC) 102 % of control | dose: 120.0 mg/kg/injection, schedule: Q01DX005 (ip), vehicle: Klucel (hydroxypropylcellulose) (HPC) 102 % of control | dose: 240.0 mg/kg/injection, schedule: Q01DX005 (ip), vehicle: Klucel (hydroxypropylcellulose) (HPC) 94 % of control

Cc1cc(/C=C/c2ccccc2)nc(/C=C/c2ccccc2)c1
inactive: [6] 104 % of control | [7] 97 % of control | [8] 100 % of control

COc1cc2c(c(OC)c1OC)C(=O)/C(=C\c1ccccc1)O2
inactive: dose: 3.13 mg/kg/injection, schedule: Q01DX009 (ip), vehicle: saline with Tween-80 105 % of control | dose: 6.25 mg/kg/injection, schedule: Q01DX009 (ip), vehicle: saline with Tween-80 101 % of control and 102 % of control and 95 % of control | [1] 100 % of control and 105 % of control and 114 % of control | [2] 105 % of control and 121 % of control and 93 % of control | [3] 118 % of control and 96 % of control

C[Si](C)(C)[Si](C)(C)C
inactive: [12] 98 % of control | [13] 111 % of control | [14] 102 % of control

[I][Pt+2][I].[NH-]C(c1ccccc1)C([NH-])c1ccccc1 (centres undefined)
inactive: dose: 12.5 mg/kg/injection, schedule: Q04DX002 (ip), vehicle: saline with Tween-80 102 % of control | dose: 25.0 mg/kg/injection, schedule: Q04DX002 (ip), vehicle: saline with Tween-80 109 % of control and 111 % of control | dose: 50.0 mg/kg/injection, schedule: Q04DX002 (ip), vehicle: saline with Tween-80 115 % of control

O=C1NN=C(c2ccc(Br)cc2)CS1
inactive: [3] 92 % of control and 97 % of control | [5] 101 % of control and 87 % of control | [4] 113 % of control and 120 % of control

O=C(NC1CCCCC1)O/N=C/c1ccc2c(c1)OCO2
inactive: [3] 93 % of control | [5] 86 % of control | [4] 86 % of control
